Experiments:
Balb/c mice = experiment: In vivo safety study, one-week intraperitoneal administration; parameters: species or system mouse; details: 20 mg/kg i.p.
Protocol: Animals: The study utilized male Balb/c mice aged 6–8 weeks, with weights ranging from 22 to 26 g. These mice were sourced from a reputable supplier and maintained in a certified pathogen-free facility. They were housed in polycarbonate cages under controlled environmental conditions (temperature: 20–22 °C; humidity: 40–60%) with a 12 h light/dark cycle. Mice had ad libitum access to filtered water and a standard rodent chow diet, ensuring their nutritional needs were met throughout the study.
Preparation of Test Item: The investigational solution that contains the compound 1 was prepared before administration to ensure its stability and efficacy. The preparation involved dissolving compound 1 in a solvent mixture comprising 5% ethanol and Cremophor, diluted in 95% phosphate-buffered saline (PBS). […] All solutions were prepared in a sterile environment to minimize the risk of contamination.
Experimental Design: Mice were randomly assigned to one of two experimental groups to eliminate bias in treatment effects. Group 1 (negative control) consisted of six mice that received intraperitoneal injections of the vehicle solvent (5% ethanol–Cremophor in 95% PBS). Group 2 (compound 1 treatment group) comprised seven mice receiving compound 1 at a dosage of 20 mg/kg body weight, administered via intraperitoneal injection. The dosage was selected based on preliminary dose–response studies ensuring safety and efficacy.
Treatment Protocol: The treatment regimen involved administering injections every two days over a one-week period, culminating in a total of three injections per mouse. This schedule was designed to maintain consistent therapeutic levels of compound 1 in the bloodstream, providing sufficient time for both pharmacological effects and assessment of any potential adverse reactions.
Assessment Parameters: Behavioral observations were meticulously recorded on a daily basis throughout the treatment period. Trained personnel monitored the mice for signs of toxicity or any deviations from normal behavior, including changes in activity levels, grooming patterns, and feeding behavior [35]. Body weight was measured at baseline prior to treatment, immediately before each injection, and at the conclusion of the treatment period to assess any potential effects of compound 1 on growth and overall health.
After the treatment phase, mice were humanely euthanized using approved methods to minimize distress. Major organs, including the spleen, liver, lungs, brain, heart, and kidneys, were carefully excised, weighed, and subjected to morphological examination to identify any structural abnormalities or pathological changes. The organ coefficients were calculated using the following formula:Organ Coefficient (mg/10 g) = 10 × […]/weight of the mouse.
Blood samples were collected post-euthanasia using heparinized tubes to prevent coagulation. Following collection, samples were centrifuged at 1500 rpm for 7 min to separate the plasma, which was then used for biochemical analysis. A clinical chemistry analyzer measured various parameters, including transaminases (AST, ALT), creatinine, uric acid, and key electrolytes (sodium, potassium, chloride, calcium, and phosphorus), alongside alkaline phosphatase levels. Hematological evaluations were performed, including red blood cell (RBC) counts, hemoglobin (HB) levels, hematocrit (HCT), mean corpuscular hemoglobin (MCH), and white blood cell (WBC) counts.

caspase-8 = experiment: Caspase-Glo 8 assay; type: cell-based, human; details: MDA-MB-231 cells, 0.3 µM, 24 h, versus DMSO-treated cells
Protocol: Caspases-3/7, -8, and -9 activities were determined using the Caspase-Glo® 3/7, 8, and 9 Assay Systems (Promega Corporation, Madison, WI, USA) as previously described.

[1] = system: MCF-7 human breast cancer cells; experiment: MTT cell viability assay, MCF-7; type: cell-based
Protocol: The three cell lines adopted in this work (MCF-7, MDA-MB-231 and MCF-10A) were obtained from the American Type Culture Collection (ATCC, Manassas, VA, USA). MCF-7 human breast cancer cells were cultured in Dulbecco’s modified Eagle’s medium/nutrient mixture Ham F-12 (DMEM/F12), added with 10% fetal bovine serum (FBS) and 100 U mL^−1 penicillin/streptomycin. MDA-MB-231 human breast cancer cells were maintained in DMEM/F12 added with 5% FBS, 1% L-glutamine and 100 U mL^−1 penicillin/streptomycin. MCF-10A human mammary epithelial cells were cultured in DMEM/F12 medium added with 5% horse serum (HS, Thermo Fisher Scientific, Milan, Italy), 100 U mL^−1 penicillin/streptomycin, 0.5 mg mL^−1 hydrocortisone, 20 ng mL^−1 human epidermal growth factor (hEGF), 10 mg mL^−1 insulin, and 0.1 mg mL^−1 cholera enterotoxin (Sigma–Aldrich, Milan, Italy). Cells were cultured at 37 °C in a humidified atmosphere (95% air and 5% CO2) and periodically screened for checking contamination.
The 3-(4,5-dimethylthiazol-2-y1)-2,5-diphenyltetrazolium Bromide (MTT, Sigma–Aldrich, Milan, Italy) assay was used for determining cell viability. Cells were seeded on forty-eight well plates and cultured in a complete medium. Next, cells were serum-deprived (24 h). Then, cells were exposed to the tested compounds in phenol-red-free medium added with 1% of serum for 72 h. After medium removal, MTT solution was added to each well (0.5 mg/mL) and incubated at 37 °C (2 h). Cells were lysed (DMSO), and the optical density was measured (570 nm) using a microplate reader. Mean absorbance was reported as a percentage versus control, and IC50 values were calculated using GraphPad Prism 8 software (version 8.4.3., GraphPad Inc., San Diego, CA, USA). The selectivity index was obtained by the ratio of IC50 values calculated for normal and cancer cells. Data represent three independent experiments; standard deviations (SD) were reported.

[2] = Hydrolytic stability test by 1H NMR; type: physicochemical
Protocol: ^1H NMR spectra were recorded at 298 K on a Bruker Avance 400 spectrometer operating at 400 MHz (^1H) and referred to the residual proton deuterated solvent peaks (^1H: (CD3)2SO, δ 2.50).
The hydrolytic chemical stability is an important step in early drug discovery for ensuring the potential development of compounds useful in therapy. […]

Cc1cc(C=NN=Cc2cc(C)c3[nH]c4ccc(Br)cc4c3c2C)c(C)c2c1[nH]c1ccc(Br)cc12 [Compound 1, N,N’-bis-(6-bromo-1,4-dimethyl-9H-carbazol-3-ylmethylene)-hydrazine]
behavior (Balb/c mice; one week): normal behavioral patterns | lung coefficient versus negative control (Balb/c mice; one week): notable increase | toxic effects related to treatment (Balb/c mice; one week): no observable toxic effects | body weight change versus negative control (Balb/c mice; one week, p > 0.05): no significant differences | hematological parameters (WBC, RBC, HB, HCT, MCV, MCH, MCHC, platelet counts) versus control (Balb/c mice; one week, p > 0.05): no significant differences | organ weights (spleen, liver, brain, heart, kidney, lung) versus negative control (Balb/c mice; one week, p > 0.05): no significant differences | serum AST, ALT, creatinine, uric acid and electrolyte profiles versus control (Balb/c mice; one week, p > 0.05): comparable | organ weight coefficient Brain (Balb/c mice; three injections over one week): 0.13 ± 0.03 10× g (organ)/g(animal) | organ weight coefficient Heart (Balb/c mice; three injections over one week): 0.06 ± 0.01 10× g (organ)/g(animal) | organ weight coefficient Kidney (Balb/c mice; three injections over one week): 0.07 ± 0.01 10× g (organ)/g(animal) | organ weight coefficient Liver (Balb/c mice; three injections over one week): 0.54 ± 0.03 10× g (organ)/g(animal) | organ weight coefficient Lung (Balb/c mice; three injections over one week): 0.11 ± 0.01 10× g (organ)/g(animal) | organ weight coefficient Spleen (Balb/c mice; three injections over one week): 0.07 ± 0.02 10× g (organ)/g(animal) | increase of caspase-8 activity (caspase-8): about 60% | IC50 ([1]; Homo sapiens, MCF7, MTT, 72 h, mean ± SD of three experiments): 600 ± 300 nM | SI MCF-7 ([1]; ratio of IC50 values for normal (MCF-10A) and cancer cells (MCF-7)): >166.7 | hydrolytic stability (1H NMR spectra changes) ([2]; DMSO-d6/D2O (90:10), 37 °C, 24 h): no changes were recorded | stability in the solid state ([2]; solid state): stable in the solid state even years after synthesis
